Results as given in US20210369812A1, “OSTEOINDUCTIVE PEPTIDES, COMPOSITIONS, IMPLANTS, AND METHODS OF USE” (The Board of Regents of the University of Oklahoma, priority 2018, published 2021).

How the values were obtained:
BMPR2 = molecular target: T1, BMPR2 (Homo sapiens, UniProt Q13873); experiment: Enzyme-linked immune sorbent assay for receptor binding (BMPR2); settings: peptide on p3 of M13 phage; absorbance 450 nm; n=4; vs wild type phage
T1 construct: purchased G&P Biosciences
T1 sequence (Q13873 27-150 limits assumed): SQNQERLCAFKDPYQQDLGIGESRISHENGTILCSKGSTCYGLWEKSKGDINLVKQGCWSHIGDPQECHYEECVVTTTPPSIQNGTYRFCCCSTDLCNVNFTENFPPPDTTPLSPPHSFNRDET
Text: Groups having the same lowercase letter assigned (above the bar) were not statistically different from each other. Groups having different letters assigned (above the bar) were statistically different from each other. […] The primary antibody was mouse anti-g3p (p8) IgG. The secondary antibody was anti-mouse IgG conjugated with horseradish peroxidase. The substrate, 3,3′,5,5′-Tetramethylbenzidine was detected at 450 nm after stopping the reaction with 1 M HCl.
Blocking buffer (0.1 M NaHCO3 (pH 8.6), 5 mg/ml BSA. Filter sterilized, stored at 4° C.) was prepared. TBS (50 mM Tris-HCl (pH 7.5), 150 mM NaCl, autoclaved, stored at room temperature) was prepared. Separate solutions of the target receptors were then made. For BMPR1A, a 10 μg/ml stock solution was made. For BMPR2, a 10 μg/ml solution was also made. Separate wells with n=4 for each different peptide bearing phage group were then coated with one of the receptors. […] After a brief pilot test, it should be noted that using 10^10 phage/ml was determined to work best, but other concentrations of virus also worked consistently. […] Then, […] of freshly prepared 3,3′,5,5′-Tetramethylbenzidine (TMB) was added to each well and the absorbance at 370 nm and 652 nm was monitored for 1 hour using an ELISA plate reader. […] The absorbance at 450 nm for each well was then measured.

hMSCs = experiment: Immunofluorescence of osteoblast marker proteins; type: cell-based, human; settings: hMSCs on phage films, 26 days, basal media
Text: OPN was detected with the primary antibody for OPN (RbpAB to osteopontin ab8448 from Abcam). The secondary antibody used was Goat Anti-Rabbit IgG H&L (Alexa Fluor 555) (ab150078) from Abcam (red). OCN was detected with the primary antibody for OCN [OC4-30] (ab13418) from Abcam). The secondary antibody used was Goat Anti-Mouse IgG H&L (Dylight 650) preadsorbed from abcam ab96882 (red). COL was detected using a primary antibody for COL (RbpAb to collagen 1 ab34710). The secondary antibody used was Goat Anti-Rabbit IgG H&L (Alexa Fluor 555) (ab150078) from abcam (red). Cell nuclei were stained by DAPI (blue) for all samples, and actin was stained by phalloidin (green).
This procedure can be scaled for any size well plates or petri dish, but the volumes included are for 96-well tissue culture plates. […]
After culturing hMSCs on phage films for 26 days, the cells were fixed with 4% paraformaldehyde (10 min) and permeabilized with 0.2% Triton X-100 (2 min) at room temperature. […] The osteogenic protein markers osteopontin (OPN), osteocalcin (OCN), and collagen type 1A (COL) were detected through immunofluorescence. OPN was detected with the primary antibody for OPN (RbpAB to osteopontin ab8448 from Abcam). […] OCN was detected with the primary antibody for OCN [OC4-30] […] COL was detected using a primary antibody for COL (RbpAb to collagen 1 ab34710). […]

Sequence | Relative binding strength in ELISA to BMPR2 (BMPR2) | Osteocalcin protein expression (immunofluorescence) (hMSCs) | Osteopontin protein expression (immunofluorescence) (hMSCs)
SGTQDSMVGWNK (Completely synthesized in the lab - Ph.D.-12 Phage Display Peptide Library Kit (New England Biolabs)) | statistically significant binders | – | –
VHVPLHRGAVSA (Completely synthesized in the lab - Ph.D.-12 Phage Display Peptide Library Kit (New England Biolabs)) | – | slightly greater osteocalcin production | qualitatively higher level of osteopontin protein expression than the other groups and a higher expression than the positive control
